Source: patent US20230111910A1, “PD-1/PD-L1 INHIBITOR, PREPARATION METHOD THEREFOR, AND USE THEREOF” (SHANGHAI SYNERGY PHARMACEUTICAL SCIENCES CO., LTD., priority 2020, published 2023)
Counter-ions that a name gives are not always drawn. Like-named read-outs stand apart in the source and are kept apart here.

Legend:
Format in all cases: in vivo
[1] = Pharmacokinetic experiment in rats, LC/MS/MS; conditions: male, rat, whole blood, SD rats; for AUC: read-out: Area under the curve (AUC, ng/mL.h); for half-life: read-out: Half life (T1/2, h) (converted); for bioavailability: p.o. 10 mg/kg vs i.v. 2 mg/kg, read-out: Bioavailability (F%); for Cmax: read-out: Blood concentration (Cmax, ng/mL)
Experimental: Taking SD rats as an example, the drug concentrations in the plasma of rats at different times after i.g. and i.v. administration of compounds of Examples 1, 5, 6, 8, 12, 13, 15, 18, 19, 22, 25, 27 and 29, respectively, were determined by the liquid chromatography-tandem mass spectrometry (LS/MS/MS) method, and the relevant pharmacokinetic parameters were calculated to evaluate the pharmacokinetic properties of example compounds of the present invention in rats.
Healthy adult SD rats, SPF grade, male, purchased from Sippe-Bk Lab Animal Co., Ltd., Shanghai, license number SCXK (Shanghai) 2018-0006, animal certificate number: 20180006006321.
A certain amount of compound was weighed, dissolved in 5% dimethyl sulfoxide (DMSO), subjected to vortex and sonication, added with 0.5% sodium carboxymethyl cellulose (CMC-Na), and sonicated, to prepare a homogeneous solution.
Before administration and 5 min, 15 min, 0.5 h, 1 h, 2 h, 4 h, 6 h, 8 h and 24 h after administration, orbital blood was collected, 0.2 milliliters (mL) of blood being collected each time, and placed in an anticoagulant tube, mixed well, and stored in a −20° C. refrigerator for later use.
The content of the compound in rat whole blood was determined by liquid chromatography-tandem mass spectrometry (LS/MS/MS).
The pharmacokinetic parameters of the compounds after administration were calculated using the non-compartmental model of WinNonLin5.3 software.

ICR mice = assay: Acute toxicity test in mice, single dose, 14 days observation; conditions: within 14 days from administration
Experimental: (§1) This experiment aims to test the toxic effects of the compounds in mice.
(§2) ICR mice, SPF grade, 6-8 weeks old, half male and half […], purchased from Sippe-Bk Lab Animal Co., Ltd., Shanghai, license number SCXK (Shanghai) 2018-0006, animal certificate number: 20180006010983.
(§3) ICR mice were administered different doses of compounds at a single time, and were continuously observed for 14 days. The animal death, poisoning reaction, body weight change, diet, appearance, behavior, etc. were recorded. At the end point, the animals were dissected, and the organs were taken for histopathological examination.

[2] = as above; conditions: both sexes, mouse, in vivo; ICR mice, single administration; read-out: median lethal dose (LD50)
Experimental: as §1, §2, §3

Row | SMILES | AUC ([1]; iv, i.v., 2 mg/kg) | half-life ([1]; iv, i.v., 2 mg/kg) | bioavailability ([1]; po) | AUC ([1]; po, p.o. (i.g.), 10 mg/kg) | Cmax ([1]; po, p.o. (i.g.), 10 mg/kg) | body weight and behavior compared with control group (ICR mice) | LD50 at 14 days [2]
1 | Cc1c(NC(=O)c2nc3c(s2)CN(C)CC3)cncc1-c1cccc(NC(=O)c2nc3c(n2C)CCN(C)C3)c1C [Example 5, N-(5-(3-(1,5-dimethyl-4,5,6,7-tetrahydro-1H-imidazo[4,5-c]pyridine-2-carboxamido)-2-methylphenyl)-4-methylpyridin-3-yl)-5-methyl-4,5,6,7-tetrahydrothiazolo[5,4-c]pyridine-2-carboxamide] | 612 ng·h/mL | 2.5 h | 68% | 2080 ng·h/mL | 432 ng/mL | – | –
2 | Cc1c(NC(=O)c2nc(CNCCO)cs2)cccc1-c1cccc(NC(=O)c2ccc(CNCCO)cn2)c1Cl [Example 2] | – | – | – | – | – | no abnormal body weight or behavior | > 1000 mg/kg
3 | Cc1c(NC(=O)c2nc3c(n2C)CCN(C[C@H](C)O)C3)cccc1-c1cncc(-c2nc3cc(CN4CC[C@@H](C(=O)O)C4)cc(Cl)c3o2)c1C [Example 12] | 586 ng·h/mL | – | 60% | 1760 ng·h/mL | 442 ng/mL | – | –
4 | Cc1c(NC(=O)c2nc3c(n2C)CCN(C[C@H](C)O)C3)cncc1-c1cccc(NC(=O)c2nc3c(n2C)CCN(C(C)C)C3)c1Cl [Example 24, (S)—N-(2-chloro-3-(5-(5-(2-hydroxypropyl)-1-methyl-4,5,6,7-tetrahydro-1H-imidazo[4,5-c]pyridine-2-carboxamido)-4-methylpyridin-3-yl)phenyl)-5-isopropyl-1-methyl-4,5,6,7-tetrahydro-1H-imidazo[4,5-c]pyridine-2-carboxamide] | – | – | – | – | – | no abnormal body weight or behavior | > 1000 mg/kg
5 | Cc1c(NC(=O)c2nc3c(s2)CN(C)CC3)cncc1-c1cccc(NC(=O)c2nc3c(n2C)CCN(CC(C)O)C3)c1C (stereo not drawn) [Example 6, N-(5-(3-(5-(2-hydroxypropyl)-1-methyl-4,5,6,7-tetrahydro-1H-imidazo[4,5-c]pyridine-2-carboxamido)-2-methylphenyl)-4-methylpyridin-3-yl)-5-methyl-4,5,6,7-tetrahydrothiazolo[5,4-c]pyridine-2-carboxamide] | 676 ng·h/mL | 1.36 h | 62% | 2100 ng·h/mL | 389 ng/mL | – | –
6 | Cc1c(NC(=O)c2nc3c(n2C)CCN(C)C3)cccc1-c1cncc(-c2nc3cc(CN4CC[C@@H](C(=O)O)C4)cc(Cl)c3o2)c1C [Example 13] | 630 ng·h/mL | 1.43 h | 54% | 1700 ng·h/mL | 431 ng/mL | no abnormal body weight or behavior | > 1000 mg/kg
7 | Cc1c(NC(=O)c2nc(CNCCO)cn2C)cccc1-c1cccc(NC(=O)c2ccc(CNCCO)cn2)c1Cl [Example 1, N-(2-chloro-3′-(4-(((2-hydroxyethyl)amino)methyl)-1-methyl-1H-imidazole-2-carboxamido)-2′-methyl-[1,1′-biphenyl]-3-yl)-5-(((2-hydroxyethyl)amino)methyl)picolinamide] | 596 ng·h/mL | 2.05 h | 56% | 1670 ng·h/mL | 415 ng/mL | – | –
8 | Cc1c(NC(=O)c2nc3c(n2C)CCN(C[C@H](C)O)C3)cncc1-c1cccc(NC(=O)c2nc3c(n2C)CCN(C[C@H](C)O)C3)c1Cl [Example 26, N-(5-(2-chloro-3-(5-((S)-2-hydroxypropyl)-1-methyl-4,5,6,7-tetrahydro-1H-imidazo[4,5-c]pyridine-2-carboxamido)phenyl)-4-methylpyridin-3-yl)-5-((S)-2-hydroxypropyl)-1-methyl-4,5,6,7-tetrahydro-1H-imidazo[4,5-c]pyridine-2-carboxamide] | – | – | – | – | – | no abnormal body weight or behavior | > 1000 mg/kg
9 | Cc1c(NC(=O)c2nc3c(n2C)CCNC3)cccc1-c1cncc(-c2nc3cc(CN4CC[C@@H](C(=O)O)C4)cc(Cl)c3o2)c1C [Example 19, (R)-1-(((7-chloro-2-(4-methyl-5-(2-methyl-3-(1-methyl-4,5,6,7-tetrahydro-1H-imidazole)[4,5-c]pyridine-2-carboxamido)phenyl)pyridin-3-yl)benzo[d]oxazol-5-yl)methyl)pyrrolidine-3-carboxylic acid] | 560 ng·h/mL | 2.21 h | 65% | 1820 ng·h/mL | 407 ng/mL | no abnormal body weight or behavior | > 1000 mg/kg
10 | Cc1c(NC(=O)c2nc3c(n2C)CCN(C)C3)cncc1-c1cccc(-c2nc3cc(CN4CC[C@@H](C(=O)O)C4)cc(Cl)c3o2)c1C [Example 21] | – | – | – | – | – | no abnormal body weight or behavior | > 1000 mg/kg

Second part, led by results:

Row | AUC ([1]; iv, i.v., 2 mg/kg) | half-life ([1]; iv, i.v., 2 mg/kg) | bioavailability ([1]; po) | AUC ([1]; po, p.o. (i.g.), 10 mg/kg) | Cmax ([1]; po, p.o. (i.g.), 10 mg/kg) | SMILES | body weight and behavior compared with control group (ICR mice) | LD50 at 14 days [2]
11 | 617 ng·h/mL | 2.14 h | 48% | 1480 ng·h/mL | 405 ng/mL | Cc1c(NC(=O)c2nc3c(n2C)CCN(CC(C)O)C3)cccc1-c1cccc(-c2nc3cc(CN4CC[C@@H](C(=O)O)C4)ncc3o2)c1C (stereo partly drawn) [Example 29, (R)-1-((2-(3′-(5-(2-hydroxypropyl)-1-methyl-4,5,6,7-tetrahydro-1H-imidazo[4,5-c]pyridine-2-carboxamido)-2,2′-dimethyl-[1,1′-biphenyl]-3-yl)oxazolo[5,4-c]pyridin-6-yl)methyl)pyrrolidine-3-carboxylic acid] | – | –
12 | 578 ng·h/mL | 2.42 h | 53% | 1530 ng·h/mL | 365 ng/mL | Cc1c(NC(=O)c2nc3c(s2)CNCC3)cccc1-c1cccc(-c2nc3cc(CN4CC[C@@H](C(=O)O)C4)cnc3o2)c1C [Example 18, (R)-1-((2-(2,2′-dimethyl-3′-(4,5,6,7-tetrahydrothiazolo[5,4-c]pyridine-2-carboxamido)-[1,1′-biphenyl]-3-yl)oxazolo[5,4-b]pyridin-6-yl)methyl)pyrrolidine-3-carboxylic acid trifluoroacetate] | – | –
13 | 612 ng·h/mL | 2.35 h | 60% | 1840 ng·h/mL | 435 ng/mL | Cc1c(NC(=O)c2nc3c(s2)CN(C)CC3)cccc1-c1cncc(-c2nc3cc(CN4CC[C@@H](C(=O)O)C4)cc(C#N)c3o2)c1C [Example 25] | – | –
14 | 578 ng·h/mL | 1.46 h | 51% | 1470 ng·h/mL | 488 ng/mL | Cc1c(NC(=O)c2nc3c(s2)CN(C[C@H](C)O)CC3)cccc1-c1cccc(-c2nc3cc(CN4CC[C@@H](C(=O)O)C4)cnc3o2)c1C [Example 22, (R)-1-((2-(3′-(5-((S)-2-hydroxypropyl)-4,5,6,7-tetrahydrothiazolo[5,4-c]pyridine-2-carboxamido)-2,2′-dimethyl-[1,1′-biphenyl]-3-yl)oxazolo[5,4-b]pyridin-6-yl)methyl)pyrrolidine-3-carboxylic acid] | – | –
15 | 601 ng·h/mL | 1.56 h | 55% | 1650 ng·h/mL | 402 ng/mL | Cc1c(NC(=O)c2nc3c(s2)CN(C)CC3)cncc1-c1cccc(-c2nc3cc(CN4CC[C@@H](C(=O)O)C4)cc(Cl)c3o2)c1C [Example 8, (R)-1-((7-chloro-2-(2-methyl-3-(4-methyl-5-(5-methyl-4,5,6,7-tetrahydrothiazolo[5,4-c]pyridine-2-carboxamido)pyridin-3-yl)phenyl)benzo[d]oxazol-5-yl)methyl)pyrrolidine-3-carboxylic acid] | – | –
